The test system of assay [1] is CG (DNA, duplex) CGCGCGCGCGCG
Put plainly: absorption titration, NMR line broadening. The conditions noted are these: Na+ (10 mM sodium phosphate, 10 mM NaCl); buffer A pH 7.5, 25 °C; intercalation only, almost no fluorescence enhancement.

Assay [2] concerns A3T3 (DNA, duplex) CGCGAAATTTCGCG
Put plainly: ITC. The conditions noted are these: Na+ (10 mM sodium phosphate, 10 mM NaCl); buffer A pH 7.5, 25 °C; TC into 40 μM A3T3; single site model.

Assay [3] has as its system AT (DNA, duplex) CGCGATCGCG
The assay is described as follows: absorption and fluorescence titration. The conditions noted are these: Na+ (10 mM sodium phosphate, 10 mM NaCl); buffer A pH 7.5, 25 °C; mixed intercalation and incomplete groove binding.

Assay [4] has as its system t-(AT)2 (DNA, duplex) ATATCGCGATAT
Put plainly: absorption and fluorescence titration. The conditions noted are these: Na+ (10 mM sodium phosphate, 10 mM NaCl); buffer A pH 7.5, 25 °C; mixed intercalation and incomplete groove binding.

The subject of assay [5] is (AT)2 (DNA, duplex) CGCGATATCGCG
The assay is described as follows: absorption and fluorescence titration. The conditions noted are these: Na+ (10 mM sodium phosphate, 10 mM NaCl); buffer A pH 7.5, 25 °C; minor groove at 1:1, intercalation at low [DNA]/[TC].

The subject of assay [6] is A2T2 (DNA, duplex) CGCGAATTCGCG
Put plainly: absorption, fluorescence and NMR titration. The conditions noted are these: Na+ (10 mM sodium phosphate, 10 mM NaCl); buffer A pH 7.5, 25 °C; minor groove at 1:1, intercalation at low [DNA]/[TC].

One may read the Kd as the free concentration of one partner at which half of the binding sites on the other are occupied at equilibrium, for simple one-to-one binding. Read a high Kd as weaker binding. For the compound `CCN(CC)c1ccc2cc(/C=C/c3sc4ccccc4[n+]3C)c(=O)oc2c1`, the binding entry in assay [1], in assay [3], in assay [4], in assay [5] and in assay [6] was “yes” in each case. For the same compound, the dissociation constant (Kd) in assay [2] turned out to be 2900 nM.

(Values after publication PMC7497988 (2020).)
